From US20250188044A1 (HARBIN MEDISAN PHARMACEUTICAL CO., LTD., priority 2021, published 2025)
Like-named read-outs stand apart in the source and are kept apart here.

What was measured:
[1] = biological target: T1, PPARγ (Homo sapiens, UniProt P37231); test: Gal4-PPARγ(LBD) reporter gene agonistic activity assay in Cos-7 cells; assay type: cell-based; details: Cos-7 cells, Gal4-PPARγ(LBD) reporter, 16 h; 100% = Rosiglitazone 1 μM
T1 construct: hPPARγ (281aa-554aa); expressed in transfected cells; host or cells: Cos-7
T1 sequence (P37231 232-505 limits assumed): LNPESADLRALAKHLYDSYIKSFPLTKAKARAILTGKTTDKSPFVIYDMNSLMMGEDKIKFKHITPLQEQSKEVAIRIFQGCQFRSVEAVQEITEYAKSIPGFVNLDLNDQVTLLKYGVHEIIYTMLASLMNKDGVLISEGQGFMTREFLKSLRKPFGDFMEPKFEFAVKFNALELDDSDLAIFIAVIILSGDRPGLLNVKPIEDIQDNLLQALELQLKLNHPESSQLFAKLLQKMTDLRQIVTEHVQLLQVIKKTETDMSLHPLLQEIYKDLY
Experimental: (§1) Cos-7 cells (African green monkey kidney fibroblasts, commonly used tool cells) were cultured in a 10 cm cell culture dish in a DMEM complete medium containing 10% fetal bovine serum. When the cells grew to a density of about 70%, the medium was replaced with a fresh medium for later transfection. […] The plasmid working solution was then added to the cell culture dish for cell transfection. […] Test compounds were prepared into appropriate test concentrations with a complete medium and then added to the 96-well plate. […] 10 μL of lysate was pipetted into a white opaque 384-well plate, and then 10 μL of reporter gene assay buffer (purchased from Shanghai Beyotime Biological Tech. Co., Ltd.) was added. The bioluminescence was detected by using a multimode microplate reader, and the corresponding half maximal effective concentration (EC50) value was calculated according to the detection value.

[2] = biological target: T2, PPARα (Homo sapiens, UniProt Q07869); test: Gal4-PPARα(LBD) reporter gene agonistic activity assay in Cos-7 cells; assay type: cell-based; details: for EC50: Cos-7 cells, Gal4-PPARα(LBD) reporter, 16 h, 100% = GW7647 10 nM; for agonistic activity for PPARα (EC50 level, in words): Cos-7 reporter assay
T2 construct: hPPARα (279aa-580aa); expressed in transfected cells; host or cells: Cos-7
T2 sequence (Q07869 167-468 limits assumed): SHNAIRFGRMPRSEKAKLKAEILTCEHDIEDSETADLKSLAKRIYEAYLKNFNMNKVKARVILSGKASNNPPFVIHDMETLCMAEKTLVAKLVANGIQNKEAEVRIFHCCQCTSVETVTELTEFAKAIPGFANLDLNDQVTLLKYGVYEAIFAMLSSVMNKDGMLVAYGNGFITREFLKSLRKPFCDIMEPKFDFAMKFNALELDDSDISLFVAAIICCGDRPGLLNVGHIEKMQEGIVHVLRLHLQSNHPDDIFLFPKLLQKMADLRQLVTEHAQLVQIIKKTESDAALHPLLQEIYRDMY
Experimental: as §1

[3] = Metabolic stability in human liver microsomes; assay type: in vitro ADME; details: for half-life: human liver microsomes 0.75 mg/mL, NADPH, 0-60 min
Experimental: A 500 μM solution of the compound in acetonitrile was prepared and diluted to obtain a 1.5 μM drug working solution with a 0.1 M potassium phosphate solution. The drug working solution was co-incubated with a human liver microsome working solution at a final concentration of 0.75 mg/mL and an NADPH solution (final concentration: 550 μM), and the incubation was terminated by adding an acetonitrile solution at 0 min, 15 min, 30 min, 45 min, and 60 min. The residual amount of the compound that remained in the system at each time point was detected by using LC/MS. The absolute value k of the slope was determined by plotting the natural logarithm of the percentage of the residual amount of the compound with the time, and the calculation was performed according to the formula: T1/2 (half-life)=ln2/k=0.693/k.

[4] = biological target: T3, PPARδ (Homo sapiens, UniProt Q03181); test: Gal4-PPARδ(LBD) reporter gene agonistic activity assay in Cos-7 cells; assay type: cell-based; details: for agonistic activity for PPARδ (EC50 level, in words): Cos-7 reporter assay
T3 construct: expressed in transfected cells; host or cells: Cos-7
T3 sequence (Q03181 139-441 limits assumed): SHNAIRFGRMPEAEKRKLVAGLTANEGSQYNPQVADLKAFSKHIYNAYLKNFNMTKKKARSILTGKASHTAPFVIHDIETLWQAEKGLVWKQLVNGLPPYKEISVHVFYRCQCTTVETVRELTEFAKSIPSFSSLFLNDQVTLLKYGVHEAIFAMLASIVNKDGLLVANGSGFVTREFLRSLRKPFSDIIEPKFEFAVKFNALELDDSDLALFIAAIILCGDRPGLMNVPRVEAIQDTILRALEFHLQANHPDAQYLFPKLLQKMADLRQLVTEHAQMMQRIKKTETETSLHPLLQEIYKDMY
Experimental: as §1

[5] = Pharmacokinetic evaluation in rats; assay type: in vivo, SD rats
Experimental: Animals: 6 male SD rats, SPF grade, sourced from the animal repository of Shanghai Medicilon research institution.
The dose in the oral administration group was 10 mpk, and the dose in the intravenous injection group was 2 mpk.
All samples were centrifuged at 18,000 g for 7 min in a low-temperature centrifuge, and plasma was isolated. The content of the compound in the plasma was determined by LC-MS/MS-18, and relevant pharmacokinetic parameters were calculated from the plasma concentration data at different time points.

| SMILES | EC50 [1] | EC50 [2] | agonistic activity for PPARα (EC50 level, in words) [2] | metabolic stability in human liver microsomes (in words) [3] | half-life [3] | EC50 ([4]; Cos-7 cells, Gal4-PPARδ(LBD) reporter, 16 h, 100% = GW501516 10 nM) | agonistic activity for PPARδ (EC50 level, in words) [4] | EC50 [4] | pharmacokinetic properties (in words) [5] | Area under the curve AUC(0-∞) ([5]; intravenous injection, 2 mpk) | Half-life T1/2 ([5]; intravenous injection, 2 mpk) | Peak concentration Cmax ([5]; intravenous injection, 2 mpk) | Time-to-peak Tmax ([5]; intravenous injection, 2 mpk) | Area under the curve AUC(0-∞) ([5]; oral administration, 10 mpk) | Bioavailability F ([5]; oral administration, 10 mpk) | Half-life T1/2 ([5]; oral administration, 10 mpk) | Peak concentration Cmax ([5]; oral administration, 10 mpk) | Time-to-peak Tmax ([5]; oral administration, 10 mpk) |
| --- | --- | --- | --- | --- | --- | --- | --- | --- | --- | --- | --- | --- | --- | --- | --- | --- | --- | --- |
| CCc1ccc(-n2cnn(Cc3cc(C)c(OC(C)(C)C(=O)O)c(C)c3)c2=O)cc1 [Compound 131, 2-(4-((4-(4-Ethylphenyl)-5-oxo-4,5-dihydro-1H-1,2,4-triazol-1-yl)methyl)-2,6-dimethylphenoxy)-2-methylpropionic acid] | 1180 nM | 14 nM | at nanomolar levels | very good metabolic stability in human liver microsomes | > 2 h | 67 nM | at nanomolar levels | – | – | – | – | – | – | – | – | – | – | – |
| Cc1cc(Cn2ncn(-c3ccc(C(F)(F)F)cc3)c2=O)cc(Cl)c1OC(C)(C)C(=O)O [Compound 143, 2-(2-Chloro-6-methyl-4-((5-oxo-4-(4-(trifluoromethyl)phenyl)-4,5-dihydro-1H-1,2,4-triazol-1-yl)methyl)phenoxy)-2-methylpropionic acid] | 1800 nM | 9 nM | at nanomolar levels | very good metabolic stability in human liver microsomes | > 2 h | – | at nanomolar levels | 15 nM | – | – | – | – | – | – | – | – | – | – |
| Cc1cc(Cn2ncn(-c3ccc(OC(F)(F)F)cc3)c2=O)cc(C(F)(F)F)c1OC(C)(C)C(=O)O [Compound 163, 2-Methyl-2-(2-methyl-4-((5-oxo-4-(4-(trifluoromethoxy)phenyl)-4,5-dihydro-1H-1,2,4-triazol-1-yl)methyl)-6-(trifluoromethyl)phenoxy)propionic acid] | – | 35 nM | at nanomolar levels | – | > 2 h | – | at nanomolar levels | 6 nM | relatively good pharmacokinetic properties | 15851.97 ± 3557.93 ng·h/mL | 12.71 ± 8.67 h | 10864.30 ± 719.85 ng/mL | 0.08 ± 0.00 h | 39483.83 ± 5363.60 ng·h/mL | 53.24% | 6.86 ± 0.34 h | 5474.28 ± 1232.94 ng/mL | 0.25 ± 0.00 h |
